Results reported in patent US20070254906A1 (DarPharma, Inc., priority 2004, published 2007).
Entries after “also recorded” stand apart in the source; their conditions may differ. Counter-ions that a name gives are not always drawn. Like-named read-outs stand apart in the source and are kept apart here.

How the values were obtained:
[1] = test system: alveolar fluid resorption; settings: isolated, perfused rat lungs; cited from earlier work
[2] = molecular target: T1, D2 receptors (Rattus norvegicus, UniProt P61169); assay type: binding; settings: rat brain striatal homogenates, 3H-spiperone; read-out: D2 Affinity (K0.5) ± SEM
T1 construct: other: rat brain striatal homogenates, 3H-spiperone
T1 sequence (P61169 whole entry): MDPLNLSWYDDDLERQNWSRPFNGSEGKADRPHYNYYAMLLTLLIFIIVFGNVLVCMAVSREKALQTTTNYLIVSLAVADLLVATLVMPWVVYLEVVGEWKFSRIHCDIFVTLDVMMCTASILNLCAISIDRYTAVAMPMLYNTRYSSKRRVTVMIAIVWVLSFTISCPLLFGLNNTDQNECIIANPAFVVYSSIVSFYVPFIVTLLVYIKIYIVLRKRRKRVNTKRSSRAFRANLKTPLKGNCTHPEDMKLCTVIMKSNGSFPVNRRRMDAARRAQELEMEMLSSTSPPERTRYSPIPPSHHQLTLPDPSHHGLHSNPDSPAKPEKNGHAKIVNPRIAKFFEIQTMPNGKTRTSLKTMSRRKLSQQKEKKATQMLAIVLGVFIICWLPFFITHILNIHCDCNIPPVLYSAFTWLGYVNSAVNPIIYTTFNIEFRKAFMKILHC

[3] = molecular target: D1 receptors (Rattus norvegicus, UniProt P18901); experiment: Binding affinity at rat brain striatal D1 receptors (3H-SCH 23390); settings: read-out: D1 Affinity (K0.5) ± SEM; rat brain striatal homogenates, 3H-SCH 23390
D1 receptors (Rattus norvegicus, UniProt P18901), sequence (P18901 whole entry): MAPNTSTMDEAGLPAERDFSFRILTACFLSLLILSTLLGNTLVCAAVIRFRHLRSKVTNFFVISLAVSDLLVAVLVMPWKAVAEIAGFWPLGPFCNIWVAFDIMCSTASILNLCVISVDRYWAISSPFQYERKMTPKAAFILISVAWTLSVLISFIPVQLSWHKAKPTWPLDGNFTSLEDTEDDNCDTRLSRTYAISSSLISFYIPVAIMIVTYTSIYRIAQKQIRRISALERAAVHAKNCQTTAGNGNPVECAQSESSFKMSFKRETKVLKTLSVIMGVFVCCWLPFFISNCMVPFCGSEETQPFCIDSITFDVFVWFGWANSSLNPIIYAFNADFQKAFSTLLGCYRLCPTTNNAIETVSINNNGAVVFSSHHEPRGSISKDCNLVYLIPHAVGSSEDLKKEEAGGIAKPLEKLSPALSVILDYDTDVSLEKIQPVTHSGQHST

[4] = test system: D1 receptors; experiment: as above; settings: for D1:D2 Selectivity: rat brain striatal homogenates
[5] = test system: adenylate cyclase; experiment: Activation of adenylate cyclase in rat brain striatum; assay type: biochemical; settings: compared with dopamine
[6] = background statement; cited from earlier work
[7] = test system: dopamine release and reuptake; experiment: Dopamine release and reuptake
[8] = Half-life, duration of action and oral absorption; assay type: in vivo; settings: for half-life: intravenous, read-out: half-life when given intravenously
[9] = molecular target: 40 binding sites (other than the D1 site); experiment: Screen at about 40 receptor binding sites; settings: inactive at all except D2 and alpha2
[10] = test system: adenylate cyclase; experiment: Stimulation of adenylate cyclase by dihydrexidine; settings: for efficacy in stimulating adenylate cyclase: compared with dopamine, rat, monkey, and human brain tissue, hydrochloride
[11] = test system: rabbit model of lung injury; experiment: Fluid resorption in rabbit model of lung injury; assay type: in vivo; settings: intravenous route
[12] = molecular target: dopamine D1 receptor; settings: read-out: IC50, binding to dopamine D1 receptor; Mottola et al. (1992); cited from earlier work
[13] = test system: injured rat lung; experiment: Fluid resorption in rat model of lung injury; assay type: in vivo; settings: intravenous administration, listed as DHX, hydrochloride
[14] = molecular target: 40 binding sites (other than the D1 site); settings: inactive; Mottola et al. (1992); read-out: IC50 at about 40 different receptor binding sites; cited from earlier work
[15] = molecular target: alpha2 adrenergic receptors; settings: Mottola et al. (1992); cited from earlier work
[16] = molecular target: alpha2 adrenergic receptors; experiment: Binding at alpha2 adrenergic receptors (screen); settings: Method Example 2 text
[17] = test system: lung liquid clearance; settings: cited from earlier work
[18] = molecular target: D1 receptor (Homo sapiens, UniProt P21728); experiment: Alveolar fluid resorption in transgenic mice overexpressing the D1 receptor; settings: mice with D1 receptor overexpressed by electroporation
D1 receptor, sequence (P21728 whole entry): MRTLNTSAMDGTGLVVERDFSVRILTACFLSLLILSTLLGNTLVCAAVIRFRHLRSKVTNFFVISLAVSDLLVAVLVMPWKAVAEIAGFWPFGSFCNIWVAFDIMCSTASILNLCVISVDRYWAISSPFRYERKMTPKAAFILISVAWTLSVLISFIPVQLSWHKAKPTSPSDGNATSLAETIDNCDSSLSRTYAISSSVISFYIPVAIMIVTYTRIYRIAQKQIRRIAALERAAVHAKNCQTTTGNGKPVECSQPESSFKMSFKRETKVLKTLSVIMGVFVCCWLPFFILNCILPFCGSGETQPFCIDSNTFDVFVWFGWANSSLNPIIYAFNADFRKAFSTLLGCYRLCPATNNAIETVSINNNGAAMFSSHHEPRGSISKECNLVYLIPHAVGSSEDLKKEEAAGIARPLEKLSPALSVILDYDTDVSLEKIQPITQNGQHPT

[19] = test system: D2 receptors; assay type: binding, rat

## CCN1CCCC1CNC(=O)c1cc(S(N)(=O)=O)ccc1OC (centres unmarked) [sulpiride]
[1]
  blockade of the dopamine effect on alveolar fluid resorption: not

## CCCN1Cc2cccc3c2C(C1)c1ccc(O)c(O)c1O3 (centres unmarked) [Compound 16c, N-propyl-8,9-dihydroxy-1,2,3,11b-tetrahydrochromeno[4,3,2-de]isoquinoline]
other
  melting point: 259 to 264 °C (dec.)

## Cl.Oc1cc2c(cc1O)[C@@H]1c3cc(Cc4ccccc4)ccc3CN[C@H]1CC2 (relative stereo) [Compound 6e, Trans-2-benzyl-10,11-dihydroxy-5,6,6a,7,8,12b-hexahydrobenzo[α]phenanthridine hydrochloride]
[2]
  Ki: 185 nM
[3]
  Ki: 290 nM
[4]
  D1:D2 Selectivity: 0.6

## Oc1ccc2c(c1O)Cc1cccc3c1C2CNC3 (centres unmarked) [dinapsoline, 8,9-Dihydroxy-2,3,7,11b-tetrahydro-1H-napth[1,2,3-de]isoquinoline]
[5]
  efficacy in activating adenylate cyclase in rat brain striatum: as effective as dopamine

## Br.Oc1ccc2c(c1O)Oc1cccc3c1C2CNC3 (centres unmarked)
other
  melting point: 298 to 302 °C (dec.)

## Oc1ccc(C2CNCCc3c2cc(O)c(O)c3Cl)cc1 (centres unmarked) [fenoldopam]
[6]
  half-life: about 15 minutes

## Cc1ccc2c(c1)[C@H]1c3cc(O)c(O)cc3CC[C@@H]1NC2 (relative stereo) (as salt: hydrochloride) [Compound 6b, Trans-2-methyl-10,11-dihydroxy-5,6,6a,7,8,12b-hexahydrobenzo [α]phenanthridine hydrochloride]
other
  melting point: 190 °C (dec.)

## Oc1cc2c(cc1O)[C@H]1c3ccccc3CN[C@@H]1CC2 (racemic) [dihydrexidine, Trans-10,11-dihydroxy-5,6,6a,7,8,12b-hexahydrobenzo[α]phenanthridine hydrochloride]
[7]
  releasing dopamine or blocking its reuptake: inactive
[8]; in vivo
  half-life: ~30 min
[8]; oral administration, listed as DHX, hydrochloride
  oral absorption / oral bioavailability: relatively poor; also recorded: poorly absorbed
[8]; serum
  half-life: < 10 min
[8]; subcutaneous
  functional half-life when given subcutaneously: about 3 hr
[9]
  IC50: > 10 µM
[10]
  efficacy in stimulating adenylate cyclase: full efficacy
[10]; listed as DHX
  efficacy in stimulating adenylate cyclase: as efficacious as dopamine
[11]
  fluid resorption in lung injury model: shown to induce fluid resorption
[12]
  IC50: ~10 nM
[13]
  fluid absorption / resorption from injured lung: shown efficacy; also recorded: shown to induce fluid resorption
[14]
  IC50: > 10 µM
[15]
  IC50: 230 nM
[16]
  IC50: ~230 nM

## NCCc1ccc(O)c(O)c1 [dopamine]
[1]
  increase in alveolar fluid resorption: 98%
[17]; dopamine instilled at 10-5
  increase in lung liquid clearance: 131%
[17]; dopamine instilled at 10-6
  increase in lung liquid clearance: 47%
[17]; dopamine instilled at 10-8
  increase in lung liquid clearance: 27%

## Cc1ccc2c(c1)CN[C@H]1CCc3cc(O)c(O)cc3[C@H]21 (relative stereo) (as salt: hydrochloride) [Compound 6c, Trans-3-methyl-10,11-dihydroxy-5,6,6a,7,8, 12b-hexahydrobenzo[α]phenanthridine hydrochloride]
other
  melting point: 190 °C (dec.)

## CN1CCc2cc(Cl)c(O)cc2C(c2ccccc2)C1 (centres unmarked) [SCH 23390]
[1]
  blockade of the dopamine effect on alveolar fluid resorption: blocked
[10]; D1 antagonist
  blockade of dihydrexidine stimulation of adenylate cyclase: blocked
[18]
  blockade of the increase in alveolar fluid resorption: blocked

## Cc1ccc2c(c1)CN[C@H]1CCc3cc(O)c(O)cc3[C@H]21 (relative stereo) [Compound 6c, Trans-3-methyl-10,11-dihydroxy-5,6,6a,7,8, 12b-hexahydrobenzo[α]phenanthridine hydrochloride]
[19]
  D2 potency relative to dihydrexidine: greater D2 potency
[4]
  D1 potency and efficacy relative to dihydrexidine: comparable to dihydrexidine
  D1:D2 Selectivity: 6

## Oc1ccc2c(c1O)Cc1cccc3c1C2CNC3 (centres unmarked) (as salt: hydrobromid) [dinapsoline, 8,9-Dihydroxy-2,3,7,11b-tetrahydro-1H-napth[1,2,3-de]isoquinoline]
other
  melting point: 258 °C (dec.)
